Source: ChEMBL document CHEMBL1148832, “Rational design, structure, and biological evaluation of cyclic peptides mimicking the vascular endothelial growth factor” (J Med Chem, 2007)
The source made the active and inactive calls. The rule behind the calls is not given here. *1 amine or outer side, *2 acyl side, *3 side chain or, on linkers, in order; H or OH if unused. Where a SMILES comes first, the peptide text is derived from it. Bridges are numbered along the chain shown (N, C = ends). [ ]: non-standard residue; d: D form. X1 = O=C([C@H](Cc1cc(=O)oc2cc(O)ccc12)N[*:1])[*:2]; hPhe = N[C@@H](CCc1ccccc1)C(=O)O; β3hE = N[C@@H](CCC(=O)O)CC(=O)O

Tests used:
[1] = target: Vascular endothelial growth factor receptor 1 (Homo sapiens, UniProt P17948); assay: Displacement of biotinylated VEGF165 from human recombinant VEGFR1 by chemiluminescent assay
Sequence of Vascular endothelial growth factor receptor 1 (P17948 whole entry): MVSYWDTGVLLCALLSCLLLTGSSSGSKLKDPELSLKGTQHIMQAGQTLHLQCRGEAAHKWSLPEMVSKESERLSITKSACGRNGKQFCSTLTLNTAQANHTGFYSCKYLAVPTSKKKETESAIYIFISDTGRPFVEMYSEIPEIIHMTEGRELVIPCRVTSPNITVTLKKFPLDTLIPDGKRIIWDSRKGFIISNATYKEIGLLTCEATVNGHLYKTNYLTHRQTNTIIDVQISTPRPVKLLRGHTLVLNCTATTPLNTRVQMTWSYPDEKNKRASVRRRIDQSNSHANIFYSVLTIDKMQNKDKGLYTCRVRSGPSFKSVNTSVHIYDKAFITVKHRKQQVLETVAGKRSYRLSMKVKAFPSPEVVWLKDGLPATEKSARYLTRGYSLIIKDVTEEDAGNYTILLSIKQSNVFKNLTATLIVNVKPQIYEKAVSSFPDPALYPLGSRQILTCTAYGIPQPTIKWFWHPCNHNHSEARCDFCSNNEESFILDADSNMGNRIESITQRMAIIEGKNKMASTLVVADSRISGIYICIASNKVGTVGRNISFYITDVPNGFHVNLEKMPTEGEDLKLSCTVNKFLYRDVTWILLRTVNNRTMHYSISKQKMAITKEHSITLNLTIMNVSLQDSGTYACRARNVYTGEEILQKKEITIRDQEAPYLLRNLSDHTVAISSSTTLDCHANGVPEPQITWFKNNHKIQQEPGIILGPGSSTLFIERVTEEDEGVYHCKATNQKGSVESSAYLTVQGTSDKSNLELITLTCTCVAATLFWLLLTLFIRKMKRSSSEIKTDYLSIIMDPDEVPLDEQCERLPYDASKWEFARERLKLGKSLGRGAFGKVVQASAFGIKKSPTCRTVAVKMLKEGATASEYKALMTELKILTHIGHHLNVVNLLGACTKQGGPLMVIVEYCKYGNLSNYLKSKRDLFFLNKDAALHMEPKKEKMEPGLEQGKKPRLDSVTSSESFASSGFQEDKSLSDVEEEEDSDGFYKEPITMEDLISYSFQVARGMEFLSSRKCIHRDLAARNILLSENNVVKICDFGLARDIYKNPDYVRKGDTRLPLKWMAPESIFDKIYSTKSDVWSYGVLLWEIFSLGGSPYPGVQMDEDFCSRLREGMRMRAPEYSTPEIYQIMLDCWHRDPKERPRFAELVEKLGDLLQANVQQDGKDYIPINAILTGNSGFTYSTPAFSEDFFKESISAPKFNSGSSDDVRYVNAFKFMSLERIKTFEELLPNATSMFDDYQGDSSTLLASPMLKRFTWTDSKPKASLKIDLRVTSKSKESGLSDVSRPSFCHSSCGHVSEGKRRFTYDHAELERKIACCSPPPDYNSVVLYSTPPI

HUVEC = assay: Inhibition of VEGF165-induced cell migration in HUVEC at 100 uM after 6 hrs by wound healing assay; assay type: functional, cell-based; conditions: Homo sapiens

| SMILES | IC50 [1] [µM] | Activity (HUVEC) |
| --- | --- | --- |
| CC(C)C[C@@H]1NC(=O)CNC(=O)[C@H](CCC(=O)O)NC(=O)[C@H](Cc2cc(=O)oc3cc(O)ccc23)NC(=O)[C@H](CCc2ccccc2)NC(=O)CC[C@@H](C(N)=O)NC(=O)[C@H](CCC(=O)O)NC1=O ([hPhe][X1]EGLEE-NH2; lactam N-7) | 19.3 | – |
| CC(C)C[C@@H]1NC(=O)CNC(=O)[C@H](CCC(=O)O)NC(=O)[C@H](CC(=O)O)NC(=O)[C@H](Cc2ccc(O)cc2)NC(=O)[C@H](Cc2ccc(O)cc2)NC(=O)CC[C@@H](C(N)=O)NC(=O)[C@H](CCC(=O)O)NC1=O (YYDEGLEE-NH2; lactam N-8) | – | Active |
| CC(C)C[C@@H]1NC(=O)CNC(=O)[C@H](CCC(=O)O)NC(=O)[C@H](Cc2cc(=O)oc3cc(O)ccc23)NC(=O)[C@H](CCc2ccccc2)NC(=O)CC[C@@H](CC(N)=O)NC(=O)[C@H](CCC(=O)O)NC1=O ([hPhe][X1]EGLE[β3hE]-NH2; lactam N-7) | – | Active |
